structure (smiles),measurement,setting,value
O=C(O)c1cc(O)c(O)c(O)c1,solubility (mole fraction),"in methanol, 293.15 K",0.0639
same,solubility (mole fraction),"in methanol, 298.15 K",0.0672
same,solubility (mole fraction),"in methanol, 303.15 K",0.07
same,solubility (mole fraction),"in methanol, 308.15 K",0.0721
same,solubility (mole fraction),"in methanol, 313.15 K",0.0755
same,solubility (mole fraction),"in methanol, 318.15 K",0.0768
same,solubility (mole fraction),"in water, 293.15 K",0.00101
same,solubility (mole fraction),"in water, 298.15 K",0.00135
same,solubility (mole fraction),"in water, 303.15 K",0.00171
same,solubility (mole fraction),"in water, 308.15 K",0.00227
same,solubility (mole fraction),"in water, 313.15 K",0.00289
same,solubility (mole fraction),"in water, 318.15 K",0.0038

# Source: BigSolDB 2.1
